Measurements as given in patent publication US9617221B2, “Kinase modulators for the treatment of cancer” (Synovo GmbH, priority 2010, dated 2017).
“And” between values parts separate entries of the source, which are not always exact repeats. Equal values may be shown once.

Experiments:
Type in all cases: cell-based, mice
IL-1β = IL-1β production by LPS-stimulated macrophages; details: 5 μM, 72 h
Experimental: (§1) Peritoneal macrophage or splenocytes (lymphocytes and macrophage) were harvested from donor mice using standard techniques. Cells were placed in culture and stimulated with either LPS (10 μg/mL) or concanavalin A 5 μg/mL (Sigma Chemical Co., St Louis, Mo.) in RPMI-1640 medium supplemented with antibiotics, […] 2-mercaptoethanol, 10 mm HEPES buffer and 10% fetal calf serum (FCS) (see Holan et al., 1985) to stimulate macrophage and T-cells respectively. Compounds were added from DMSO stock solutions to a final concentration of 50 μM or less with DMSO not exceeding 1% of total volume. After 72 h, cell supernatant was recovered and the cytokine levels were estimated by ELISA. The effect of compounds on cytokine production was recorded as follows: […]

IL-6 = IL-6 production by LPS-stimulated macrophages; details: 10 μM, 72 h
Experimental: as §1

NO = NO production by LPS-stimulated macrophages; details: 10 μM, 72 h
IFN-g = IFN-g production by ConA-stimulated T cells; details: 10 μM, 72 h
Experimental: as §1

IL-10 [1] = assay: IL-10 production by LPS-stimulated murine peritoneal macrophage (ELISA); details: for IL-10 by ELISA, % of solvent treated control: murine peritoneal macrophage; for IL-10 (LPS, Macrophages), amount of cytokine: 10 μM, 72 h
Experimental: as §1

T cells = assay: Proliferation of Con A-stimulated T cells; details: 10 μM
Experimental: as §1

IL-4 = IL-4 production, Con A, spleen; details: 5 μM, 72 h
Experimental: as §1

IL-2 = IL-2 production by ConA-stimulated T cells; details: 10 μM, 72 h
Experimental: as §1

IL-10 [2] = assay: IL-10 production by ConA-stimulated T cells; details: 10 μM, 72 h
Experimental: as §1

B cells = assay: Proliferation of LPS-stimulated B cells; details: 10 μM

SMILES	IL-1β (Macrophages, LPS), amount of cytokine (IL-1β)	IL-6 (LPS, Macrophages), amount of cytokine (IL-6)	NO (LPS, Macrophages), % of control treated with solvent alone (NO)	IFN-g (ConA, T cells), amount of cytokine (IFN-g)	IL-10 by ELISA, % of solvent treated control (IL-10 [1]; 1 μM inhibitor in medium)	IL-10 by ELISA, % of solvent treated control (IL-10 [1]; 5 μM inhibitor in medium)	IL-10 by ELISA, % of solvent treated control (IL-10 [1]; 20 μM inhibitor in medium)	Proliferation (Con A, T cells) (T cells)	IL-10 by ELISA, % of solvent treated control (IL-10 [1]; 0.31 μM inhibitor in medium)	IL-10 by ELISA, % of solvent treated control (IL-10 [1]; 1.25 μM inhibitor in medium)	IL-10 by ELISA, % of solvent treated control (IL-10 [1]; 10 μM inhibitor in medium)	IL-4 (Con A, spleen), amount of cytokine (IL-4)	IL-10 by ELISA, % of solvent treated control (IL-10 [1]; 2 μM inhibitor in medium)	IL-10 by ELISA, % of solvent treated control (IL-10 [1]; 50 μM inhibitor in medium)	IL-10 (LPS, Macrophages), amount of cytokine (IL-10 [1])	IL-2 (ConA, T cells), amount of cytokine (IL-2)	IL-10 (ConA, T cells), amount of cytokine (IL-10 [2])	Proliferation (LPS, B cells) (B cells)
CC[C@H]1OC(=O)[C@H](C)[C@@H](OC2CC(C)(OC)C(O)C(C)O2)[C@H](C)[C@@H](OC2OC(C)CC(NC)C2O)C(C)(O)C[C@@H](C)C(=O)[C@H](C)[C@@H](O)C1(C)O (stereo partly shown) [Compound 16, 3′-desmethyl erythromycin]	85 % of control treated with solvent alone	85 % of control treated with solvent alone	63 % of control treated with solvent alone	2 % of control treated with solvent alone	117 % of solvent treated control	99 % of solvent treated control	8 % of solvent treated control	0 % of control treated with solvent alone										
CC[C@H]1OC(=O)[C@H](C)[C@@H](O[C@H]2C[C@@](C)(OC)[C@@H](O)[C@H](C)O2)[C@H](C)[C@@H](O[C@@H]2O[C@H](C)C[C@H](N(C)CC(O)CSc3nc(-c4ccc(F)cc4)c(-c4ccncc4)[nH]3)[C@H]2O)[C@](C)(O)C[C@@H](C)C(=O)[C@H](C)[C@@H](O)[C@]1(C)O (stereo partly shown) [Compound 21]	101 % of control treated with solvent alone and 143 % of control treated with solvent alone	101 % of control treated with solvent alone		0 % of control treated with solvent alone		1 % of solvent treated control	−8 % of solvent treated control		132 % of solvent treated control	95 % of solvent treated control	−13 % of solvent treated control							
CC[C@H]1OC(=O)[C@H](C)[C@@H](O[C@H]2C[C@@](C)(OC)[C@@H](O)[C@H](C)O2)[C@H](C)[C@@H](O[C@@H]2O[C@H](C)C[C@H](N(C)CCCC(=O)OCC(O)CSc3nc(-c4ccc(F)cc4)c(-c4ccnc(NC(C)c5ccccc5)c4)[nH]3)[C@H]2O)[C@](C)(O)C[C@@H](C)CN(C)[C@H](C)[C@@H](O)[C@]1(C)O (stereo partly shown) [Compound 43i]		33 % of control treated with solvent alone and 32 % of control treated with solvent alone									3 % of solvent treated control	8 % of control treated with solvent alone	25 % of solvent treated control	0 % of solvent treated control				
CC[C@H]1OC(=O)[C@H](C)[C@@H](O[C@H]2C[C@@](C)(OC)[C@@H](O)[C@H](C)O2)[C@H](C)[C@@H](O[C@@H]2O[C@H](C)C[C@H](N(C)CC3CO3)[C@H]2O)[C@](C)(O)C[C@@H](C)C(=O)[C@H](C)[C@@H](O)[C@]1(C)O (stereo partly shown) [Compound 18, 3′-desmethyl-3′-oxiranylmethyl erythromycin]	104 % of control treated with solvent alone and 81 % of control treated with solvent alone and 70 % of control treated with solvent alone	90 % of control treated with solvent alone and 109 % of control treated with solvent alone and 106 % of control treated with solvent alone	47 % of control treated with solvent alone and 54 % of control treated with solvent alone and 65 % of control treated with solvent alone		124 % of solvent treated control	109 % of solvent treated control	57 % of solvent treated control				109 % of solvent treated control	91 % of control treated with solvent alone and 84 % of control treated with solvent alone			110 % of control treated with solvent alone and 108 % of control treated with solvent alone	52 % of control treated with solvent alone and 86 % of control treated with solvent alone	38 % of control treated with solvent alone and 70 % of control treated with solvent alone	
CC[C@H]1OC(=O)[C@H](C)[C@@H](O[C@H]2C[C@@](C)(OC)[C@@H](O)[C@H](C)O2)[C@H](C)[C@@H](O[C@@H]2O[C@H](C)C[C@H](N(C)CCCCCC(=O)OCCSc3nc(-c4ccc(F)cc4)c(-c4ccnc(NC(C)C)c4)[nH]3)[C@H]2O)[C@](C)(O)C[C@@H](C)CN(C)[C@H](C)[C@@H](O)[C@]1(C)O [Compound 43k]		22 % of control treated with solvent alone	−1 % of control treated with solvent alone	0 % of control treated with solvent alone				−1 % of control treated with solvent alone			−8 % of solvent treated control		−6 % of solvent treated control	−9 % of solvent treated control	−8 % of control treated with solvent alone	0 % of control treated with solvent alone	0 % of control treated with solvent alone	−8 % of control treated with solvent alone
CC[C@H]1OC(=O)[C@H](C)[C@@H](O[C@H]2C[C@@](C)(OC)[C@@H](O)[C@H](C)O2)[C@H](C)[C@@H](O[C@@H]2O[C@H](C)C[C@H](N(C)CCCC(=O)OCC(O)COc3cccc(C(=O)c4cnn(-c5ccc(F)cc5)c4N)c3)[C@H]2O)[C@](C)(O)C[C@@H](C)CN(C)[C@H](C)[C@@H](O)[C@]1(C)O (stereo partly shown) [Compound 43h]						52 % of solvent treated control	−11 % of solvent treated control			68 % of solvent treated control		280 % of control treated with solvent alone						
CCC(C)Nc1cc(-c2[nH]c(SCC(O)COC(=O)CCCN(C)[C@H]3C[C@@H](C)O[C@@H](O[C@@H]4[C@@H](C)[C@H](O)[C@@H](C)C(=O)O[C@H](CC)[C@@](C)(O)[C@H](O)[C@@H](C)N(C)C[C@H](C)C[C@@]4(C)O)[C@@H]3O)nc2-c2ccc(F)cc2)ccn1 (stereo partly shown) [Compound 43e]		29 % of control treated with solvent alone	1 % of control treated with solvent alone	0 % of control treated with solvent alone				−1 % of control treated with solvent alone			−4 % of solvent treated control		−4 % of solvent treated control	−4 % of solvent treated control	−4 % of control treated with solvent alone	0 % of control treated with solvent alone	−2 % of control treated with solvent alone	−3 % of control treated with solvent alone
